Assay results taken from paper PMC7096398, “Oxytocin Receptors Regulate Social Preference in Zebrafish” (Scientific Reports, 2020).
Entries after “also recorded” stand apart in the source; their conditions may differ.

Legend:
Assay type in all cases: in vivo, zebrafish (Danio rerio)
adult zebrafish [1] = experiment: Novel tank diving in adult zebrafish
Procedure: (§1) Adult and larval behavioural testing was performed between 9 AM and 4 PM. All fish were fed prior to and after experiments, and larvae were also given an additional feed at midday. Adult fish were of a 1:1 sex ratio, and focal fish and stimulus fish were size-matched. Adult fish and shoals were filmed using a web camera and Debut Video Capture Software (NCH Software, Greenwood Village, USA), and videos were analysed using EthoVision version 11 (Noldus, Wageningen, the Netherlands).
A novel tank diving test was executed individually in order to examine the effect of the antagonist on anxiety in zebrafish. Anxiety-like behaviour in zebrafish is evident in a tendency to move towards the bottom of novel environments. The novel tank diving test used here has been described elsewhere. In brief, the same procedure as for the shoaling test described above was used, except that fish were housed in groups of 4–6 individuals 24 hours prior to the experiment in order to keep netting and potential stress to a minimum, and each fish was placed the test tank individually. A total of 20 vehicle-treated fish and 20 antagonist-treated fish were tested.
(§2) All data for the social preference and novel tank diving experiments in adults were extracted as processed means per minute from EthoVision. For the shoaling experiments, raw data was exported from EthoVision, and then post-processed by an in-house script written in Python 3.4, in order to compute IFD, NND, and FND as described elsewhere. For timelines, repeated measures analysis of variance (RM-ANOVA) was used. For pairwise comparisons of total means between groups, Student’s T-tests were used.

larval zebrafish = experiment: Social preference in larval zebrafish; settings: 100 µM immersion 1 h
Procedure: The social preference test for young zebrafish has been described elsewhere. In brief, experiments were performed in custom-built arenas; see Fig. 5, consisting of laser-cut 5 mm high white acrylic walls placed on transparent flooring with transparent acrylic partitions. The dimensions of each arena were 40 × 32 mm, and the chambers containing stimulus fish was 15 × 15 mm. The areas in front of these stimulus compartments were designated Social Area (where the stimulus was placed) or Non-Social Area (where the stimulus was not placed). The water depth was 5 mm, and water parameters matched the ones housing water parameters. Nine arenas were placed adjacent to each other on an infrared (IR) back-light diffusing both IR and white light (Noldus, Wageningen, the Netherlands), with a digital monochrome high resolution GigE camera overhead (Noldus, Wageningen, the Netherlands), and surrounded by an opaque enclosure.
A 10 mM stock solution was prepared by dissolving L-368,899 in H2O (Milli-Q water purification system), and subsequently stored at −20 °C. The stock solution was diluted to a working concentration of 100 µM by addition of water adjusted to the same parameters kept in the fish facility. Larvae were immersed in 100 µM L-368,899 solution (treated fish) or in water matching housing conditions (control fish) for 1 hour prior to testing. Focal larvae were then transferred to test arenas and filmed for 15 minutes, with no stimulus present (acclimation period; AC). Following this, one stimulus larva was placed in a randomly selected stimulus chamber of each arena, and focal larvae were filmed for another 15 minutes (social cue period; SC). A total of 137 vehicle-treated fish and 109 antagonist-treated fish were tested, and after using the exclusion criteria described below, 87 vehicle-treated fish and 77 antagonist-treated fish were included in the statistical analyses.
Larval results were analysed using a social preference index (SPI). SPI was calculated by subtracting the time a focal larva spent in the Non-Social Area from the time it spent in the Social Area, and then dividing the result by the total time the larva was tracked in the entire arena. […] SPI was calculated for each focal larva for the AC period and the SC period separately. […] All data was analysed using paired T-tests to investigate change within the control and treated groups, and Student’s T-tests to investigate difference between the groups for each phase.

adult zebrafish [2] = experiment: Shoaling test in adult zebrafish
Procedure: as §1
The shoaling test was performed to examine the effects of L-368,899 on social group behaviour, a test widely used to assess shoaling sensitivity to various drugs and experimental settings[75],[76].
The experimental setup comprised a 1.8 L trapezoidal tank (height 16 cm × length at the top 26 cm × length at the bottom 23 cm × width 6 cm, Aquaneering, San Diego, USA). Fifty-six zebrafish were randomly grouped into shoals of four (two males and two females) three days prior to the experiment. […] On day four all shoal members were weighed and injected with either fish Ringer’s (n = 6 shoals) or L-368,899 (n = 7 shoals), using the same procedure described above. Shoals were returned to their respective holding tanks for one hour to recover, and then gently transferred to test tanks, in which they were filmed for 15 minutes.
as §2

Structure (SMILES): Cc1ccccc1N1CCN(S(=O)(=O)C[C@]23CC[C@H](C[C@@H]2NC(=O)[C@@H](N)CCS(C)(=O)=O)C3(C)C)CC1 [L-368,899]
- Anxiety behaviour: Distance to bottom (adult zebrafish [1]; adult novel tank diving, i.p., 1 h before test, mean ± SEM, n = 20, vehicle 2.7 ± 0.4): 3.1 ± 0.4 cm
- Locomotion: Velocity (adult zebrafish [1]; adult novel tank diving, i.p., 1 h before test, mean ± SEM, n = 20, vehicle 3.1 ± 0.2, p = 0.47): 2.9 ± 0.2 cm/s
- Anxiety behaviour: Duration in top zone (adult zebrafish [1]; adult novel tank diving, i.p., 1 h before test, mean ± SEM, n = 20, vehicle 7.0 ± 2.4): 8.8 ± 2.4 s/min
- Locomotion: Distance (adult zebrafish [1]; adult novel tank diving, i.p., 1 h before test, mean ± SEM, n = 20, vehicle 186 ± 11, p = 0.49): 174 ± 14 cm/min
- Anxiety behaviour: Latency to top zone (adult zebrafish [1]; adult novel tank diving, i.p., 1 h before test, mean ± SEM, n = 20, vehicle 327 ± 58): 387 ± 81 s
- Anxiety, in words (adult zebrafish [1]; adults, antagonist vs vehicle): did not affect anxiety; also recorded: no differences in any of the anxiety parameters
- Activity parameters vs vehicle, novel tank diving test (adult zebrafish [1]; average distance p = 0.49, average velocity p = 0.47): no significant differences
- Social preference in larvae, in words (larval zebrafish): decreased social preference
- Increase in SPI from acclimation to social cue (larval zebrafish; t(76) = 0.177, p = 0.86, vehicle larvae significantly increased, p = 0.039): not present
- SPI during the social cue period vs vehicle (larval zebrafish; t(162) = 1,98, p = 0.049): significantly lower SPI
- Social Preference Index (AC) (larval zebrafish; 3-week-old larvae, acclimation phase, mean ± SEM, n = 77, vehicle 0.06 ± 0.04): 0.00 ± 0.05
- Locomotion (AC): Velocity (larval zebrafish; 3-week-old larvae, acclimation phase, mean ± SEM, n = 77, vehicle 0.28 ± 0.01): 0.30 ± 0.02 cm/s
- Locomotion (AC): Distance (larval zebrafish; 3-week-old larvae, acclimation phase, mean ± SEM, n = 77, vehicle 249 ± 12): 265 ± 14 cm/min
- Social Preference Index (SC) (larval zebrafish; 3-week-old larvae, social cue phase, mean ± SEM, n = 77, vehicle 0.18 ± 0.05): 0.01 ± 0.06
- Shoaling parameters vs vehicle, outlier vehicle shoal included (adult zebrafish [2]; IFD, NND, FND, including outlier shoal): no significant differences
- Social behaviour: Nearest neighbour distance (adult zebrafish [2]; adult shoaling, shoals of four, 100 µg per gram fish i.p., 1 h before 15 min test, mean ± SEM, n = 7 shoals, vehicle 3.3 ± 0.2): 3.7 ± 0.1 cm
- Social behaviour: Interfish distance (adult zebrafish [2]; adult shoaling, shoals of four, 100 µg per gram fish i.p., 1 h before 15 min test, mean ± SEM, n = 7 shoals, vehicle 5.9 ± 0.3): 6.7 ± 0.2 cm
- Social behaviour: Furthest neighbour distance (adult zebrafish [2]; adult shoaling, shoals of four, 100 µg per gram fish i.p., 1 h before 15 min test, mean ± SEM, n = 7 shoals, vehicle 8.7 ± 0.5): 9.8 ± 0.2 cm
- Locomotion: Velocity (adult zebrafish [2]; adult shoaling, shoals of four, 100 µg per gram fish i.p., 1 h before 15 min test, mean ± SEM, vehicle 3.6 ± 0.2, p = 0.30): 3.2 ± 0.3 cm/s
- Locomotion: Distance (adult zebrafish [2]; adult shoaling, shoals of four, 100 µg per gram fish i.p., 1 h before 15 min test, mean ± SEM, vehicle 207 ± 15, p = 0.37): 186 ± 17 cm/min
- Shoaling, in words (adult zebrafish [2]; adult zebrafish): potentially also shoaling behaviour; also recorded: tentative and small effect
- Activity parameters vs vehicle, shoaling test (adult zebrafish [2]; average distance p = 0.37, average velocity p = 0.30): no significant differences
- Inter-fish distance (IFD) vs vehicle, outlier excluded (adult zebrafish [2]; t(10) = 2.276, p = 0.046): significantly more spread out
- Nearest neighbour distance (NND) vs vehicle, outlier excluded (adult zebrafish [2]; t(10) = 2.324, p = 0.042): significantly more spread out
